This is an account of results in patent US3963735A, “Acylated 2-aminothiazole derivatives” (Egyt Gyogyszervegyeszeti Gyar, priority 1973, dated 1976).

Each structure is given as a SMILES string. Counter-ions that a name gives are not always drawn. Like-named read-outs stand apart in the source and are kept apart here.

Data set [1] deals with gastric acid secretion. As to the kind of experiment: inhibition of gastric juice secretion, method of H. Shay et al. It counts as in vivo. Conditions: po; rat. The protocol:
(§1) All experiments were carried out on rats.

The test system of data set [2] is Shay ulcer. The experiment in a line: Shay ulcer-inhibiting effect, method of H. Shay et al. It counts as in vivo. The note with it: po, rat. As for the experimental part:
as §1

Data set [3] in a line: acute toxicity. The note with it: in vivo, rat. The protocol: as §1
For data set [4], the system named is ileum. The note with it: rat.
Experimental: (§2) The effects of the new compounds exerted on the gastric acid secretion and Shay ulcer was examined according to the method of H. Shay et al. (Gastroenterology 5, 43/1945/), while their inhibition effect exerted on immobilisation and insuline ulcer was tested according to the method of Borsi et al. (Acta Pharm. Hung. 38, 151 /1968/). […] All experiments were carried out on rats. As reference substance, methantheline (diethyl-/2-hydroxyethyl/-methylammonium bromide xanthene-9-carboxylate) was used.
Data set [5] in a line: in vivo. The note with it: rat.
Experimental: as §2
Data set [6] deals with immobilisation ulcer. The experiment in a line: immobilisation ulcer inhibition, method of Borsi et al. It is filed as in vivo. Conditions: po, rat, p.o., read-out: Ulcer-inhibiting effect ED50, immob. The protocol:
as §1

Data set [7] concerns insuline ulcer. As to the kind of experiment: insulin ulcer inhibition, method of Borsi et al. It counts as in vivo. The note with it: po, rat, p.o., read-out: Ulcer-inhibiting effect ED50, insulin. The protocol:
as §1

Setting [8] is: ip, i.p., read-out: Acute toxicity LD50, i.p.
The mark [9] stands for this setting: po, p.o., read-out: Acute toxicity LD50, p.o.

The term ED50 denotes the dose that gives a 50% effect, or the effect in half of the subjects. A word on the LD50: it is the dose at which mortality reaches 50%. Take `CCCCCCCCNCC(=O)Nc1nc(-c2cccnc2)cs1` [Example 28, 2-(n-Octylamino-acetamido)-4-(3'-pyridyl)-thiazole dihydrochloride]: the median effective dose (ED50) in data set [1] is 40 mg/kg; in data set [2], over 40 mg/kg; in data set [5] it was over 100 mg/kg. Besides, the LD50 in data set [3] (setting [8]) worked out at 200 mg/kg; in data set [3] (setting [9]) it was 800 mg/kg. For the same molecule, in data set [4], the “Anticholinergic effect, ED50, ileum” value is given as over 1 gamma.
As to `CCNCC(=O)Nc1nc(-c2cccnc2)cs1` [Example 4, 2-(Ethylamino-acetamido)-4-(3'-pyridyl)-thiazole], the ED50 in data set [1] was 16 mg/kg; in data set [2], over 40 mg/kg; in data set [6], 40 mg/kg; in data set [7], 12 mg/kg; in data set [5], over 100 mg/kg. The LD50 in data set [3] (setting [8]) worked out at 240 mg/kg; in data set [3] (setting [9]), 550 mg/kg. Further, the “Anticholinergic effect, ED50, ileum” value in data set [4] is reported as over 1 gamma.
As for `O=C(CN1CCCCCCC1)Nc1nc(-c2cccnc2)cs1` [Example 19, 2-(Heptamethyleneimino-acetamido)-4-(3'-pyridyl)-thiazole], the ED50 was over 40 mg/kg in data set [1], over 40 mg/kg in data set [2] and over 100 mg/kg in data set [5]. In addition, the median lethal dose (LD50) in data set [3] (setting [8]) was over 1000 mg/kg; in data set [3] (setting [9]) it was over 2000 mg/kg. Also, the “Anticholinergic effect, ED50, ileum” value in data set [4] is reported as over 1 gamma.
Take `CC(C)CNCC(=O)Nc1nc(-c2cccnc2)cs1` [Example 24, 2-(Isobutylamino-acetamido)-4-(3'-pyridyl)-thiazole dihydrochloride]: the 50% effective dose (ED50) in data set [1] is 23 mg/kg; in data set [2], over 40 mg/kg; in data set [6], over 40 mg/kg; in data set [7] it was 20 mg/kg; in data set [5], over 100 mg/kg. Further, the figures for the LD50 in data set [3] (setting [8]) and in data set [3] (setting [9]) were 200 mg/kg and 350 mg/kg, respectively. In addition, in data set [4], the “Anticholinergic effect, ED50, ileum” value was over 1 gamma.
Turning to `O=C(CNC1CC1)Nc1nc(-c2cccnc2)cs1` [Example 2, 2-cyclopropylamino-acetamido-4-(3'-pyridyl)-thiazole], the ED50 in data set [1] is 8 mg/kg; in data set [2], 40 mg/kg; in data set [6], 27 mg/kg; in data set [7], 6 mg/kg; in data set [5], over 100 mg/kg. Also, the figures for the 50% lethal dose (LD50) in data set [3] (setting [8]) and in data set [3] (setting [9]) were 310 mg/kg and 420 mg/kg, respectively. Besides, in data set [4], the “Anticholinergic effect, ED50, ileum” value is over 1 gamma.
Take `O=C(CNCc1ccccc1)Nc1nc(-c2cccnc2)cs1` [Example 8, 2-(Benzylamino-acetamido)-4-(3'-pyridyl)-thiazole]: the ED50 in data set [1] was 20 mg/kg; in data set [2], over 40 mg/kg; in data set [5] it was over 100 mg/kg. Further, the LD50 in data set [3] (setting [8]) is over 1000 mg/kg; in data set [3] (setting [9]) it was 1000 mg/kg. In data set [4], the “Anticholinergic effect, ED50, ileum” value is over 1 gamma.
Regarding `CCN(CC)CC(=O)Nc1nc(-c2cccnc2)cs1` [Example 5, 2-(Diethylamino-acetamido)-4-(3'-pyridyl)-thiazole], the ED50 was 40 mg/kg in data set [1]; over 40 mg/kg in data set [2]; 40 mg/kg in data set [6]; over 40 mg/kg in data set [7]; over 100 mg/kg in data set [5]. Besides, the figures for the LD50 in data set [3] (setting [8]) and in data set [3] (setting [9]) were 460 mg/kg and 1400 mg/kg, respectively. Also, in data set [4], the “Anticholinergic effect, ED50, ileum” value is over 1 gamma.
For `Cc1sc(NC(=O)CNC2CC2)nc1-c1cccnc1` [Example 31, 2-cyclopropylamino-acetamido-4-(3'-pyridyl)-5-methyl-thiazole dihydrochloride], the 50% effective dose (ED50) in data set [1] was 19 mg/kg; in data set [2], 50 mg/kg; in data set [6], 30 mg/kg; in data set [7] it was 20 mg/kg; in data set [5] it was over 100 mg/kg. The LD50 in data set [3] (setting [8]) came to 500 mg/kg; in data set [3] (setting [9]), 1000 mg/kg. For the same molecule, the “Anticholinergic effect, ED50, ileum” value in data set [4] is reported as over 1 gamma.
`Cc1sc(NC(=O)CNCCO)nc1-c1cccnc1` [Example 32, 2-(2'-hydroxyethylamino-acetamido)-4-(3"-pyridyl)-5-methyl-thiazole]: the 50% effective dose (ED50) in data set [1] is 35 mg/kg; in data set [2], over 40 mg/kg; in data set [6] it was over 40 mg/kg; in data set [7] it was over 40 mg/kg; in data set [5] it was over 100 mg/kg. The LD50 is 400 mg/kg in data set [3] (setting [8]) and over 1500 mg/kg in data set [3] (setting [9]). For the same molecule, the “Anticholinergic effect, ED50, ileum” value in data set [4] was over 1 gamma.
For the molecule `O=C(CN1CCCCC1)Nc1nc(-c2cccnc2)cs1` [Example 17, 2-(Pentamethyleneimino-acetamido)-4-(3'-pyridyl)-thiazole], the 50% effective dose (ED50) is over 40 mg/kg in data set [1]; over 40 mg/kg in data set [2]; over 40 mg/kg in data set [6]; over 40 mg/kg in data set [7]; over 100 mg/kg in data set [5]. Moreover, the median lethal dose (LD50) was 650 mg/kg in data set [3] (setting [8]) and 1300 mg/kg in data set [3] (setting [9]). Also, the “Anticholinergic effect, ED50, ileum” value in data set [4] is over 1 gamma.
In the case of `O=C(CNC1CC1)Nc1nc(-c2ccncc2)cs1` [Example 33, 2-cyclopropylamino-acetamido-4-(4'-pyridyl)-thiazole dihydrochloride], the ED50 in data set [1] is 20 mg/kg; in data set [5], over 100 mg/kg. Besides, the LD50 in data set [3] (setting [8]) turned out to be 600 mg/kg; in data set [3] (setting [9]), 900 mg/kg. Also, in data set [4], the “Anticholinergic effect, ED50, ileum” value is given as over 1 gamma.
On to `CC[N+](C)(CC)CCOC(=O)C1c2ccccc2Oc2ccccc21` [Methantheline, diethyl-/2-hydroxyethyl/-methylammonium bromide xanthene-9-carboxylate, reference compound], for which the ED50 in data set [1] is 20 mg/kg; in data set [2], 15.2 mg/kg; in data set [6], 20.7 mg/kg; in data set [7], 11.5 mg/kg; in data set [5], 17 mg/kg. In addition, the LD50 was 76 mg/kg in data set [3] (setting [8]) and 320 mg/kg in data set [3] (setting [9]). Besides, in data set [4], the “Anticholinergic effect, ED50, ileum” value is 3×10^-^5 gamma.
In the case of `O=C(CNc1ccccc1)Nc1nc(-c2cccnc2)cs1` [Example 16, 2-(Phenylamino-acetamido)-4-(3'-pyridyl)-thiazole], the ED50 in data set [1] was over 40 mg/kg; in data set [2], over 40 mg/kg; in data set [6], over 40 mg/kg; in data set [7], over 40 mg/kg; in data set [5], over 100 mg/kg. Moreover, the LD50 in data set [3] (setting [8]) is over 1000 mg/kg; in data set [3] (setting [9]), over 2000 mg/kg. For the same molecule, in data set [4], the “Anticholinergic effect, ED50, ileum” value is recorded as over 1 gamma.
`CCCCCCNCC(=O)Nc1nc(-c2cccnc2)cs1` [Example 27, 2-(n-Hexylamino-acetamido)-4-(3'-pyridyl)-thiazole dihydrochloride]: the ED50 was 30 mg/kg in data set [1]; 50 mg/kg in data set [2]; 25 mg/kg in data set [6]; 20 mg/kg in data set [7]; over 100 mg/kg in data set [5]. For the same molecule, the LD50 came to 300 mg/kg in data set [3] (setting [8]) and 450 mg/kg in data set [3] (setting [9]). The “Anticholinergic effect, ED50, ileum” value in data set [4] is reported as over 1 gamma.
Turning to `O=C(CN1CCOCC1)Nc1nc(-c2cccnc2)cs1` [Example 18, 2-(4'-Morpholino-acetamido)-4-(3"-pyridyl)-thiazole], the values for the ED50 in data set [1], in data set [2] and in data set [5] were over 40 mg/kg, over 40 mg/kg and over 100 mg/kg, respectively. Further, the LD50 in data set [3] (setting [8]) was over 1000 mg/kg; in data set [3] (setting [9]), 1300 mg/kg. The “Anticholinergic effect, ED50, ileum” value in data set [4] is recorded as over 1 gamma.
